Measured values reported in paper PMC4685510, “A Cell Biologist’s Field Guide to Aurora Kinase Inhibitors” (Frontiers in Oncology, 2015).
“Also recorded” adds a separate entry of the source. Like-named read-outs stand apart in the source and are kept apart here.

Key:
[1] = tested on: 363 human kinases (including Aurora A/B/C); assay: biochemical; assay type: biochemical
[2] = target: 363 human kinases (including Aurora A/B/C) (Homo sapiens, UniProt Q16539); assay: biochemical; assay type: biochemical; conditions: read-out: % Enzyme Activity (relative to DMSO controls)
[3] = tested on: pH3(Ser 28) in HeLa cells; assay: Substrate phosphorylation immunofluorescence assay, pH3(Ser 28), HeLa; assay type: cell-based, human; conditions: for IC50: Homo sapiens, 8 h, read-out: pHistone H3 (Ser28) IC50
[4] = tested on: pLATS2(Ser 83) in HeLa cells; assay: Substrate phosphorylation immunofluorescence assay, pLATS2(Ser 83), HeLa; assay type: cell-based, human; conditions: HeLa; for pLATS2 (Ser83) IC50 / IC50: 8 h inhibitor treatment; for IC50: Homo sapiens, 8 h, read-out: pLATS2 (Ser83) IC50
Description: (§1) We employed the protocol described in Figure 3D to analyze substrate phosphorylation in HeLa cells following treatment with all 10 inhibitors in dose–response. Asynchronous cells were incubated with vehicle (DMSO) or different inhibitor doses for 8 h and then fixed and labeled with a mixture of three antibodies directed against pLATS2(Ser 83), pH3(Ser 28), and MPM2 [which detects mitotic phosphoepitopes; ([86])]. While both the anti-pLATS2(Ser 83) and MPM2 antibodies are mouse monoclonals, they are of different IgG subclasses [IgG2b for anti-pLATS2(Ser 83) and IgG1 for MPM2], and can thus be detected with subclass-specific secondary antibodies (Table S3 in Supplementary Material).
(§2) In control mitotic cells, pLATS2(Ser 83) is concentrated in foci around the spindle poles (Figure 3E; top row – green arrow) and pH3(Ser 28) is on the mitotic chromatin (Figure 3E; top row – red arrow). Selective kinase inhibition should result in loss of one signal but not the other, as illustrated by the example images for specific conditions in Figure 3E (middle and bottom rows). Cells were imaged in 4 channels to visualize pLATS2(Ser 83), pH3(Ser 28), MPM2, and DNA (labeled with Hoechst) and mitotic cells were segmented based on their bright MPM2 labeling (Figure 3E). Intensity and area thresholds were set to select the pLATS2(Ser 83) foci and the pH3(Ser 28)-labeled chromatin in their respective channels in DMSO-treated control cells and the same thresholds were applied for inhibitor-treated cells. The mean fluorescence intensity per pixel was measured to assess the activities of the kinases targeting these two substrate phosphorylation sites.
(§3) Twelve thousand HeLa cells, 10,000 U2OS cells, or 8,000 RPE1 cells were seeded into 96-well glass-bottom Sensoplates (Greiner) 16 h before inhibitor addition. Prior to seeding, the glass-bottom plates were coated with poly-L-lysine (Sigma). […] After 8 h cells were fixed with 4% PFA for 20 min at room temperature. The fixed cells were washed with PBS. For immunostaining, cells were permeabilized and blocked with PBS containing 10% normal donkey serum (Jackson ImmunoResearch) and 0.1% Triton-X100 for 1 h at room temperature. Primary antibodies against phospho-LATS2 (Ser 83), phospho-histone H3(Ser 28), and anti-phospho-MPM2 (see Table S3 in Supplementary Material) were incubated for 1 h at room temperature. […] Cells were then washed twice with PBS containing 0.1% Triton-X100. Image acquisition in four channels was performed using a CV7000 spinning disk confocal system (Yokogawa Electric Corporation) with a 40 × 0.95 NA U-PlanApo objective and 2560 × 2160 pixel sCMOS camera. […] Fifty fields per well were imaged with quadruplicate wells for each condition. Image analysis was done using the CV7000 image analysis software (Yokogawa Electric Corporation). Between 100 and 1,000 mitotic cells per condition were segmented applying object identification parameters to select for bright MPM2 labeling. Using a nuclear identifier protocol, minimum intensity thresholds were set for pLATS2(Ser 83) and the pH3(Ser 28) signals, and the resulting identified objects were eroded, dilated, and filtered for size by user-defined thresholds. For only the MPM2-positive mitotic cells, the mean fluorescence intensity of the identified pLATS2(Ser 83) and pH3(Ser 28) objects was measured, and the average intensity per cell per well was calculated. The same thresholds were applied for all of the inhibitor-treated samples, which were processed, imaged, and analyzed in parallel with control DMSO-treated cells. Data were fit using a four-parameter, variable slope fit in Prism (GraphPad). Primary and secondary antibody dilutions can be found in Table S3 in Supplementary Material.

[5] = tested on: U2OS cells; assay: Cytokinesis assay (live imaging, YFP-α-tubulin; H2B-RFP), U2OS; assay type: cell-based; conditions: Homo sapiens, read-out: Cytokinesis IC50
[6] = tested on: RPE1 cells; assay: Cytokinesis assay (live imaging, YFP-α-tubulin; H2B-RFP), RPE1; assay type: cell-based; conditions: Homo sapiens
[7] = tested on: pH3(Ser 28) in U2OS cells; assay: Substrate phosphorylation immunofluorescence assay, pH3(Ser 28), U2OS; assay type: cell-based, human; conditions: Homo sapiens, read-out: pHistone H3 (Ser28) IC50
[8] = tested on: pAuroraA(Thr 288) in HeLa cells; assay: Immunoblotting of Aurora A activation loop phosphorylation; assay type: cell-based, human; conditions: immunoblot
[9] = tested on: pLATS2(Ser 83) in U2OS cells; assay: Substrate phosphorylation immunofluorescence assay, pLATS2(Ser 83), U2OS; assay type: cell-based, human; conditions: 8 h inhibitor treatment; for IC50: Homo sapiens, read-out: pLATS2 (Ser83) IC50
Description: as §1, §2, §3

[10] = tested on: pAuroraB(Thr 232), pH3(Ser 10), pH3(Ser 28) in HeLa cells; assay: Immunoblotting of pAuroraB(Thr 232), pH3(Ser 28) and pH3(Ser 10); assay type: cell-based, human; conditions: immunoblot, dose–response
[11] = tested on: pH3(Ser 28) in RPE1 cells; assay: Substrate phosphorylation immunofluorescence assay, pH3(Ser 28), RPE1; assay type: cell-based, human; conditions: Homo sapiens, read-out: pHistone H3 (Ser28) IC50
[12] = tested on: HeLa, RPE1, and U2OS cells; assay: Cellular proliferation analysis (ATPLite, 24 h); conditions: HeLa, RPE1, U2OS; 24 h (Figure 4D, Figure S2B)
[13] = tested on: pLATS2(Ser 83) in RPE1 cells; assay: Substrate phosphorylation immunofluorescence assay, pLATS2(Ser 83), RPE1; assay type: cell-based, human; conditions: RPE1, 8 h inhibitor treatment; for IC50: Homo sapiens, RPE-1, read-out: pLATS2 (Ser83) IC50
Description: as §1, §2, §3

[14] = tested on: HeLa cells; assay: Cytokinesis assay (live imaging, YFP-α-tubulin; H2B-RFP), HeLa; assay type: cell-based, human; conditions: for IC50: Homo sapiens, HeLa, read-out: Cytokinesis IC50
[15] = tested on: Aurora A-TPX2; conditions: cited from earlier work; for IC50: ref 121, read-out: Aurora A-TPX2 IC50 (Published)
[16] = tested on: RPE1 cells; assay: G2 duration live imaging assay (GFP-PCNA; H2B-RFP), RPE1; assay type: cell-based; conditions: Homo sapiens, RPE-1; RPE1; read-out: G2/M (G2 duration) IC50
[17] = tested on: HeLa cells; assay: G2 duration live imaging assay (GFP-PCNA; H2B-RFP), HeLa; assay type: cell-based, human; conditions: Homo sapiens, read-out: G2/M (G2 duration) IC50
[18] = tested on: U2OS cells; assay: G2 duration live imaging assay (GFP-PCNA; H2B-RFP), U2OS; assay type: cell-based; conditions: Homo sapiens, read-out: G2/M (G2 duration) IC50
[19] = tested on: Aurora A; conditions: read-out: Aurora A IC50 (Published), cited from earlier work
[20] = target: T1, Aurora A/TPX2^1–43 (Homo sapiens, UniProt O14965); assay: Aurora A/TPX2^1–43 kinase assay (ADP-Glo); conditions: Aurora A-TPX2^1–43 Ki Mean ± SD, [ATP] = Km(ATP) (3 μM); 40 nM TPX2^1–43
T1 sequence (O14965 1-403): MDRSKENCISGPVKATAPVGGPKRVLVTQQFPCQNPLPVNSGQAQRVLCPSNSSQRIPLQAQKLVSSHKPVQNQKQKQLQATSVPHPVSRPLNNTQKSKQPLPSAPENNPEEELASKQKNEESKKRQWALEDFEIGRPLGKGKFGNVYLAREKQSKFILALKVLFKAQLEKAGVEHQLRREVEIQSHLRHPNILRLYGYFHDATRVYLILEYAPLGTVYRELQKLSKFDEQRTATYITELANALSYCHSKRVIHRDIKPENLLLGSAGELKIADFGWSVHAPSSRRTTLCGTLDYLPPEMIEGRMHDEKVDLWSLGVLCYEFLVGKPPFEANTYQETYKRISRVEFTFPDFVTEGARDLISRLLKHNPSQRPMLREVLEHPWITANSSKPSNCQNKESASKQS
T1 sequence (Q9ULW0 1-43 partner limits assumed): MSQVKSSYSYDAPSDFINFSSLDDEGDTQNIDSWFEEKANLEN

[21] = target: T2, Aurora B/INCENP^783–918 (Homo sapiens, UniProt Q96GD4); assay: Aurora B/INCENP^783–918 kinase assay (ADP-Glo); assay type: biochemical
T2 construct: purchased SignalChem

[22] = tested on: Aurora B; conditions: read-out: Aurora B IC50 (Published), cited from earlier work
[23] = target: T3, full-length human Aurora A (Homo sapiens, UniProt O14965); assay: Aurora A kinase assay (ADP-Glo, Kemptide substrate); conditions: Aurora A Ki Mean ± SD, [ATP] = Km(ATP) (35 μM); Ki calculated from IC50 with tight-binding equation
T3 sequence (O14965 1-403): T1 sequence (O14965 1-403)

[24] = RPE-1, RPE1, cytokinesis failure, read-out: Cytokinesis IC50
[25] = RPE-1, RPE1, 8 h inhibitor treatment
[26] = fold difference in potency calculated by dividing Ki values, for GSK1070916 the Aurora B Ki of ref 61 was used

T2 sequence (Q96GD4 whole entry): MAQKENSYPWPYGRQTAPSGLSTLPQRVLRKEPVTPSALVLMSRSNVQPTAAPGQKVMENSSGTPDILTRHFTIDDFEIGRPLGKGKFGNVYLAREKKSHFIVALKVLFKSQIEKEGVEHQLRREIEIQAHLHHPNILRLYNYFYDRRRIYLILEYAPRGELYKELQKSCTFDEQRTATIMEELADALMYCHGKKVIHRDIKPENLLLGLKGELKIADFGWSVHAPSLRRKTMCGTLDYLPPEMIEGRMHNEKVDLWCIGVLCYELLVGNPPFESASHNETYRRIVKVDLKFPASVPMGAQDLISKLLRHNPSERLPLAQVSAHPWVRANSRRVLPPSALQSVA
T2 sequence (Q9NQS7 783-918 partner limits assumed): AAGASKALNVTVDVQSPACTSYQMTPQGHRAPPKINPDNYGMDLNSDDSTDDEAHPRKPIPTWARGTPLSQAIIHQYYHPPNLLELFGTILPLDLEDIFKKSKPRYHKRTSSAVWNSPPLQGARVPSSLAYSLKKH
Chain of 363 human kinases (including Aurora A/B/C) (Homo sapiens, UniProt Q16539) (Q16539 whole entry): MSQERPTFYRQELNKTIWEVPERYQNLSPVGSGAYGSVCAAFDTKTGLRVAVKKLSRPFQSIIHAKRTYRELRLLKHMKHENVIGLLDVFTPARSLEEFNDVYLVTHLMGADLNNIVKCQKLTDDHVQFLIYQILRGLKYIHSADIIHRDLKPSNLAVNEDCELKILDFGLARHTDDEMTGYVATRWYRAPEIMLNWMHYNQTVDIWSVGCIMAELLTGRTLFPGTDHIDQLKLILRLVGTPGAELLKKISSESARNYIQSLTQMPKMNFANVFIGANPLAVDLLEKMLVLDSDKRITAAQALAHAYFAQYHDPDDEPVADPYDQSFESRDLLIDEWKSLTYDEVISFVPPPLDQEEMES

Row | Structure (SMILES) | Concentration completely eliminating pH3(Ser 28) labeling without affecting pLATS2(Ser 83) labeling [3] [nM] | pLATS2 (Ser83) IC50 [4] | IC50 [15] [nM] | IC50 ([3]; 8 h inhibitor treatment) [nM] | IC50 ([5]; cytokinesis failure) [nM] | IC50 [6, 24] [nM] | IC50 ([14]; cytokinesis failure) [nM] | IC50 [16] [nM] | Specificity window (pLATS2(Ser 83) versus pH3(Ser 28)) [4] [fold] | IC50 [4] [nM] | IC50 [17] [nM] | IC50 ([7]; 8 h inhibitor treatment) [nM] | IC50 [9] [nM] | IC50 [11, 25] [nM] | IC50 [13] [nM] | IC50 [18] [nM] | further results
1 | CCN(CCO)CCCOc1ccc2c(Nc3cc(CC(=O)Nc4cccc(F)c4)[nH]n3)ncnc2c1 [AZD1152-HQPA] | < 100 | NE (100 nM); also recorded: NE@100 nM |  |  |  |  |  |  |  |  |  |  |  |  |  |  | Kinases inhibited ≥65% of control [1]: Aurora B was the only enzyme; remaining activity at 0.1 µM [2]: 104%; IC50 [3]: 5 nM; IC50 [5]: 20 nM; IC50 ([6]; RPE-1, read-out: Cytokinesis IC50): 23 nM; IC50 ([7]; 8 h): 12 nM; Effect on Aurora A activity (pAuroraA Thr 288) ([8]; 300 nM (Figure S6)): did not; Effect on pAuroraA(Thr 288) ([8]; dose–response): did not affect; pLATS2 (Ser83) IC50 [9]: NE@200 nM; Effect on pH3(Ser 10), pH3(Ser 28), pAuroraB(Thr 232) [10]: eliminated; IC50 ([11]; RPE-1, 8 h): 25 nM; Toxicity / cytotoxicity (cellular proliferation) [12]: not observed; pLATS2 (Ser83) IC50 [13]: NE@200 nM; IC50 [14]: 4 nM
2 | COc1cc2c(Nc3ccc(NC(=O)c4ccccc4)cc3)ncnc2cc1OCCCN1CCOCC1 [ZM447439] |  | NE (3 μM); also recorded: NE@3 μM | 360 | 410 | 613 | 1320 | 615 |  |  |  |  |  |  |  |  |  | 
3 | COc1cc(Nc2ncc3c(n2)-c2ccc(Cl)cc2C(c2c(F)cccc2OC)=NC3)ccc1C(=O)O [MLN8237] |  |  |  | 160 |  |  |  | 115 | 4 | 37 | 128 | 210 | 92 | 130 | 130 | 157 | 
4 | O=C(O)c1ccc(Nc2ncc3c(n2)-c2ccc(Cl)cc2C(c2c(F)cccc2F)=NC3)cc1 [MLN8054] |  |  |  | 2900 |  |  |  | 500 | […] | 290 | 736 | 3300 | 800 | 880 | 720 | 957 | Ki ([15]; ref 71, read-out: Aurora A-TPX2 Ki (Published)): 3.3 nM; IC50 ([19]; ref 48): […]; IC50 ([19]; ref 59): […]
5 | Cc1cc(Nc2cc(N3CCN(C)CC3)nc(Sc3ccc(NC(=O)C4CC4)cc3)n2)[nH]n1 [VX-680] |  |  |  | 45 |  |  |  |  |  | 150 |  |  |  |  |  |  | IC50 ([19]; ref 119): […]
6 | CCS(=O)(=O)Nc1ccc2c(c1)/C(=C(/Nc1ccc(CN3CCCCC3)cc1)c1ccccc1)C(=O)N2 [Hesperadin] | < 100 | NE (100 nM); also recorded: NE@100 nM | 11 | 14 | 17 | 47 | 14 |  |  |  |  |  |  |  |  |  | Ki [20]: 1.37 ± 0.12 nM; Ki ([21]; Aurora B-INCENP^783–918 Ki Mean ± SD, [ATP] = Km(ATP) (10 μM)): 0.03 ± 0.014 nM; Selectivity ratio Aur B-INCENP^783–918 versus Aur A [21, 26]: 40.2 fold; Selectivity ratio Aur B-INCENP^783–918 versus Aur A-TPX2^1–43 [21, 26]: 45.3 fold; IC50 ([22]; ref 45): 250 nM; IC50 ([22]; ref 121): 3 nM; Ki [23]: 1.21 ± 0.14 nM; Stability under long-term live imaging conditions ([14]; ability to block cytokesis over time in live imaging, cell line not specified): appeared to be unstable under live imaging conditions; also recorded: appears to be unstable under long-term live imaging conditions
